Measurements from PubChem BioAssay AID2060510 (Molecular Pharmacology Branch, DTP, NCI, 2025).

System: 439559-082-T-J2-PDC spheroids viability
Assay: Anticancer human tumor 439559-082-T-J2-PDC patient-derived colon adenocarcinoma cell line growth inhibition [GQUAD]
Conditions: for IC50: curve of first compound; for viability, T/C: stronger effect = lower value
Source text: DNA G-quadruplex Stabilizer Agents in Combinations in Complex Spheroids
A high-throughput screen of multi-cell type tumor spheroids was designed to identify active combinations of DNA G-quadruplex stabilizer agents and targeted small molecules. Complex spheroids include a stromal component modeled by human endothelial cells (HUVEC) and fibroblasts modeled by human mesenchymal stem cells (MSCs). The concentration ranges selected for each drug and investigational agent were based upon clinically achievable concentrations if the clinical Cmax of the agent was known.
Compounds. The drugs and investigational agents: pidnarulex (CX-5461; NSC782164), APTO-253 (NSC789042), BRACO-19 (NSC847499), peposertib (NSC802822), ceralasertib (NSC780249), elimusertib (NSC800525), camonsertib (NSC841442), AZD-1390 (NSC803789), olaparib (NSC753686), talazoparib (NSC767125), ART-558 (NSC835418), sotorasib (NSC818433), MRTX-1133 (NSC836407), SN-38 (NSC673596), topotecan (NSC609699), etoposide (NSC141540), doxorubicin (NSC123127), gemcitabine (NSC613327), 5-fluorouracil (NSC19893), paclitaxel (NSC125973), vemurafenib (NSC761431), panobinostat (NSC761190), R-306465 (JNJ-16241199; NSC773264), adavosertib (NSC754352), TP-3654 (NSC805149), carboplatin (NSC241240), KSQ-4279 (NSC840948), and staurosporine (NSC755774) were obtained from the National Cancer Institute (NCI) Developmental Therapeutics Program Chemical Repository (34). The FDA-approved anticancer drug set is available from the NCI Developmental Therapeutics Program. […] The stock solutions were prepared in dimethyl sulfoxide (DMSO, Sigma-Aldrich, St. Louis, MO, cat. D2650) at 800-fold the tested concentration and stored at -70 degrees C prior to their use. All drugs and investigational agents were tested over a range starting from a high concentration at or near the clinical Cmax and decreasing in half-log increments. If the clinical Cmax for an agent had not been determined, the highest concentration tested was 10 microM.
2.3 Cell Culture. All cells were maintained in an incubator at 37 degrees C and 5% CO2 with 95% humidity. The PDC lines were cultured according to standard operating procedures established by the NCI PDMR. All PDCs were thawed and cultured in Matrigel-coated flasks prepared with a working solution of 1X Ham's F-12 nutrient mix, without supplementation (Invitrogen, cat. 11765054), 100 U/mL penicillin-streptomycin (Invitrogen, cat. 15140122), and 2.5% Matrigel (Corning Inc., cat. 354248) for the first three passages. The 857933-349-R-J2-PDC line was cultured in 6C/Colon 1B media, which includes advanced DMEM/F-12 (Thermo Fisher Scientific, cat. 12634028), 10 mM HEPES (Thermo Fisher Scientific, cat. 15630080), 1X GlutaMAX supplement (Thermo Fisher Scientific, cat. 35050061), 0.1 mg/mL primocin (InvivoGen, cat. ant-pm-2), 10% defined fetal bovine serum, heat inactivated (HyClone Laboratories Inc., cat. SH30070.03HI), 50% L-WRN conditioned media (ATCC, cat. CRL-3276), 1.25 mM N-Acetyl-L-cysteine (Sigma-Aldrich, cat. A9165), 10 mM nicotinamide (Sigma-Aldrich, cat. N0636), 1X B-27 supplement (Thermo Fisher Scientific, cat. 17504044), 1X N-2 supplement (Thermo Fisher Scientific, cat. 17502048), 10 microM Y-27632 dihydrochloride (Tocris Bioscience, cat. 1254), and 50 ng/mL human EGF recombinant protein (Thermo Fisher Scientific, cat. PHG0311). The 485176-168-R4-J1-PDC line was cultured in Panc media, which includes all 6C/Colon 1B media components plus 100 ng/mL human FGF-10 (Thermo Fisher Scientific, cat. 100-26), 500 nM SB-431542 (Selleckchem, cat. S1067), and gastrin (Tocris, cat. 3006).
[…]

[1] = second compound 0.0316 µM, first compound 0.0316 µM
[2] = second compound 0.0316 µM, first compound 0.1 µM
[3] = second compound 0.0316 µM, first compound 0.316 µM
[4] = second compound 0.0316 µM, first compound 1 µM
[5] = second compound 0.0316 µM, first compound 3.16 µM
[6] = second compound 0.0316 µM, first compound 10 µM
[7] = second compound 0.1 µM, first compound 0.0316 µM
[8] = second compound 0.1 µM, first compound 0.1 µM
[9] = second compound 0.1 µM, first compound 0.316 µM
[10] = second compound 0.1 µM, first compound 1 µM
[11] = second compound 0.1 µM, first compound 3.16 µM
[12] = second compound 0.1 µM, first compound 10 µM
[13] = second compound 0.316 µM, first compound 0.0316 µM
[14] = second compound 0.316 µM, first compound 0.1 µM
[15] = second compound 0.316 µM, first compound 0.316 µM
[16] = second compound 0.316 µM, first compound 1 µM
[17] = second compound 0.316 µM, first compound 3.16 µM
[18] = second compound 0.316 µM, first compound 10 µM
[19] = second compound 1 µM, first compound 0.0316 µM
[20] = second compound 1 µM, first compound 0.1 µM
[21] = second compound 1 µM, first compound 0.316 µM
[22] = second compound 1 µM, first compound 1 µM
[23] = second compound 1 µM, first compound 3.16 µM
[24] = second compound 1 µM, first compound 10 µM
[25] = second compound 3.16 µM, first compound 0.0316 µM
[26] = second compound 3.16 µM, first compound 0.1 µM
[27] = second compound 3.16 µM, first compound 0.316 µM
[28] = second compound 3.16 µM, first compound 1 µM
[29] = second compound 3.16 µM, first compound 3.16 µM
[30] = second compound 3.16 µM, first compound 10 µM
[31] = second compound 10 µM, first compound 0.0316 µM
[32] = second compound 10 µM, first compound 0.1 µM
[33] = second compound 10 µM, first compound 0.316 µM
[34] = second compound 10 µM, first compound 1 µM
[35] = second compound 10 µM, first compound 3.16 µM
[36] = second compound 10 µM, first compound 10 µM
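Further: spheroids exposed to the agents for 7 days before readout.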
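Wherever viability, T/C is given: percent of luminescence signal in DMSO vehicle wells taken as 100% viability.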

## COc1ccc([C@@H](O)c2cc(-c3ncnc4cc(N5CCOCC5)ccc34)c(F)cc2Cl)nn1 + Cc1[nH]c2ccc(F)cc2c1-c1nc2c3cccnc3c3ncccc3c2[nH]1
Second compound 0.0316 µM
  IC50: > 10 µM
Second compound 0.1 µM
  IC50: > 10 µM
Second compound 0.316 µM
  IC50: > 10 µM
Second compound 1 µM
  IC50: > 10 µM
Second compound 3.16 µM
  IC50: > 10 µM
Second compound 10 µM
  IC50: > 10 µM
[1]
  viability, T/C: 97.1%
[2]
  viability, T/C: 98%
[3]
  viability, T/C: 87.8%
[4]
  viability, T/C: 98.1%
[5]
  viability, T/C: 85%
[6]
  viability, T/C: 95.5%
[7]
  viability, T/C: 111%
[8]
  viability, T/C: 99.5%
[9]
  viability, T/C: 89%
[10]
  viability, T/C: 93.3%
[11]
  viability, T/C: 98%
[12]
  viability, T/C: 88.5%
[13]
  viability, T/C: 106%
[14]
  viability, T/C: 93.2%
[15]
  viability, T/C: 92.1%
[16]
  viability, T/C: 86.9%
[17]
  viability, T/C: 83.7%
[18]
  viability, T/C: 75.9%
[19]
  viability, T/C: 99.9%
[20]
  viability, T/C: 101%
[21]
  viability, T/C: 90.5%
[22]
  viability, T/C: 92.6%
[23]
  viability, T/C: 85.8%
[24]
  viability, T/C: 75.6%
[25]
  viability, T/C: 73.1%
[26]
  viability, T/C: 85.1%
[27]
  viability, T/C: 83.2%
[28]
  viability, T/C: 69%
[29]
  viability, T/C: 69.3%
[30]
  viability, T/C: 77.4%
[31]
  viability, T/C: 84.9%
[32]
  viability, T/C: 93.9%
[33]
  viability, T/C: 83.7%
[34]
  viability, T/C: 82%
[35]
  viability, T/C: 74.4%
[36]
  viability, T/C: 80.8%

## Nc1ccn(C2OC(CO)C(O)C2(F)F)c(=O)n1 (stereo unspecified) + Cc1[nH]c2ccc(F)cc2c1-c1nc2c3cccnc3c3ncccc3c2[nH]1
Second compound 0.0316 µM
  IC50: 0.375 µM
Second compound 0.1 µM
  IC50: 0.468 µM
Second compound 0.316 µM
  IC50: 0.362 µM
Second compound 1 µM
  IC50: 0.304 µM
Second compound 3.16 µM
  IC50: 0.203 µM
Second compound 10 µM
  IC50: 0.211 µM
[1]
  viability, T/C: 84.5%
[2]
  viability, T/C: 76.7%
[3]
  viability, T/C: 51.8%
[4]
  viability, T/C: 34.9%
[5]
  viability, T/C: 26.7%
[6]
  viability, T/C: 25.9%
[7]
  viability, T/C: 92.7%
[8]
  viability, T/C: 71.9%
[9]
  viability, T/C: 59%
[10]
  viability, T/C: 36.9%
[11]
  viability, T/C: 29.5%
[12]
  viability, T/C: 23.3%
[13]
  viability, T/C: 98.8%
[14]
  viability, T/C: 73.6%
[15]
  viability, T/C: 47.8%
[16]
  viability, T/C: 41.3%
[17]
  viability, T/C: 28.6%
[18]
  viability, T/C: 23.7%
[19]
  viability, T/C: 82.8%
[20]
  viability, T/C: 67.8%
[21]
  viability, T/C: 50.4%
[22]
  viability, T/C: 32.8%
[23]
  viability, T/C: 27.6%
[24]
  viability, T/C: 22.6%
[25]
  viability, T/C: 73.3%
[26]
  viability, T/C: 65.1%
[27]
  viability, T/C: 38.6%
[28]
  viability, T/C: 31%
[29]
  viability, T/C: 26.4%
[30]
  viability, T/C: 17.5%
[31]
  viability, T/C: 73.2%
[32]
  viability, T/C: 66.2%
[33]
  viability, T/C: 40.9%
[34]
  viability, T/C: 27%
[35]
  viability, T/C: 26.2%
[36]
  viability, T/C: 19%

## O=c1[nH]cc(F)c(=O)[nH]1 + Cc1[nH]c2ccc(F)cc2c1-c1nc2c3cccnc3c3ncccc3c2[nH]1
Second compound 0.0316 µM
  IC50: > 10 µM
Second compound 0.1 µM
  IC50: > 10 µM
Second compound 0.316 µM
  IC50: > 10 µM
Second compound 1 µM
  IC50: > 10 µM
Second compound 3.16 µM
  IC50: > 10 µM
Second compound 10 µM
  IC50: > 10 µM
[1]
  viability, T/C: 90.7%
[2]
  viability, T/C: 95.5%
[3]
  viability, T/C: 87.7%
[4]
  viability, T/C: 78.9%
[5]
  viability, T/C: 76.8%
[6]
  viability, T/C: 82.3%
[7]
  viability, T/C: 101%
[8]
  viability, T/C: 89.8%
[9]
  viability, T/C: 83.3%
[10]
  viability, T/C: 75.1%
[11]
  viability, T/C: 73.3%
[12]
  viability, T/C: 83.4%
[13]
  viability, T/C: 101%
[14]
  viability, T/C: 99.2%
[15]
  viability, T/C: 83.7%
[16]
  viability, T/C: 74.8%
[17]
  viability, T/C: 79.5%
[18]
  viability, T/C: 76.3%
[19]
  viability, T/C: 91.9%
[20]
  viability, T/C: 96.3%
[21]
  viability, T/C: 79.1%
[22]
  viability, T/C: 72.8%
[23]
  viability, T/C: 70.6%
[24]
  viability, T/C: 72.3%
[25]
  viability, T/C: 103%
[26]
  viability, T/C: 88.8%
[27]
  viability, T/C: 76.5%
[28]
  viability, T/C: 65%
[29]
  viability, T/C: 62.5%
[30]
  viability, T/C: 59.1%
[31]
  viability, T/C: 82.2%
[32]
  viability, T/C: 81.9%
[33]
  viability, T/C: 67.9%
[34]
  viability, T/C: 59.3%
[35]
  viability, T/C: 57.5%
[36]
  viability, T/C: 59.8%
